According to ChEMBL document CHEMBL3217749, “Design and synthesis of novel pyranone-based insulin sensitizers exhibiting in vivo hepatoprotective activity” (2013):
Active and inactive are the calls of the source. No cut-off for these calls is given here.

What was measured:
[1] = test system: 3T3-L1; assay: Inhibition of chronic insulin-stimulated insulin resistance in differentiated mouse 3T3L1 cells assessed as 2-deoxy-D-[3H]-glucose uptake after 24 hrs by scintillation counting analysis; assay type: functional, cell-based
[2] = test system: 3T3-L1; assay: Induction of insulin-stimulated 2-deoxy-D-[3H]-glucose uptake in differentiated mouse 3T3L1 cells at 10 uM after 24 hrs by scintillation counting analysis; assay type: functional, cell-based
[3] = Upregulation of FAS protein expression in differentiated mouse 3T3L1 cells after 7 days by western blot analysis; assay type: functional, cell-based; conditions: 3T3-L1
[4] = Upregulation of aP2 protein expression in differentiated mouse 3T3L1 cells after 7 days by western blot analysis; assay type: functional, cell-based; conditions: 3T3-L1
[5] = test system: 3T3-L1; assay: Induction of adipogenesis in mouse 3T3L1 cells assessed as lipid accumulation at 10 uM on day 8 by oil Red O staining; assay type: functional, cell-based
[6] = test system: Mus musculus; assay: Hepatoprotective activity against thioacetamide-induced liver toxicity in Swiss albino mouse assessed as protection against histological damage at 20 mg/kg administered for 7 days started 1 day after thioacetamide challenge measured on day 8 by hematoxylin-eosin staining; assay type: functional, organism-based; set-up: dose 20 mg/kg
[7] = test system: Mus musculus; assay: Hepatoprotective activity against thioacetamide-induced liver toxicity in Swiss albino mouse assessed as protection in serum total bilirubin activity at 20 mg/kg administered for 7 days started 1 day after thioacetamide challenge measured on day 8; assay type: functional
[8] = test system: Mus musculus; assay: Hepatoprotective activity against thioacetamide-induced liver toxicity in Swiss albino mouse assessed as protection in serum ALP activity at 20 mg/kg administered for 7 days started 1 day after thioacetamide challenge measured on day 8; assay type: functional
[9] = test system: Mus musculus; assay: Hepatoprotective activity against thioacetamide-induced liver toxicity in Swiss albino mouse assessed as protection in serum AST activity at 20 mg/kg administered for 7 days started 1 day after thioacetamide challenge measured on day 8; assay type: functional
[10] = test system: Mus musculus; assay: Hepatoprotective activity against thioacetamide-induced liver toxicity in Swiss albino mouse assessed as protection in serum ALT activity at 20 mg/kg administered for 7 days started 1 day after thioacetamide challenge measured on day 8; assay type: functional
[11] = test system: Mus musculus; assay: Hepatoprotective activity against thioacetamide-induced liver toxicity in Swiss albino mouse assessed as protection in serum AST activity at 20 mg/kg, po administered for 7 days started 1 day after thioacetamide challenge measured on day 8; assay type: functional, organism-based; set-up: dose 20 mg/kg
[12] = test system: Mus musculus; assay: Hepatoprotective activity against thioacetamide-induced liver toxicity in Swiss albino mouse assessed as protection in serum ALT activity at 20 mg/kg, po administered for 7 days started 1 day after thioacetamide challenge measured on day 8; assay type: functional, organism-based; set-up: dose 20 mg/kg
[13] = test system: Mus musculus; assay: Hepatoprotective activity against thioacetamide-induced liver toxicity in Swiss albino mouse assessed as protection against histological damage at 20 mg/kg, po administered for 7 days started 1 day after thioacetamide challenge measured on day 8 by hematoxylin-eosin staining; assay type: functional, organism-based; set-up: dose 20 mg/kg
[14] = test system: Mus musculus; assay: Hepatoprotective activity against thioacetamide-induced liver toxicity in Swiss albino mouse assessed as protection in serum total bilirubin activity at 20 mg/kg, po administered for 7 days started 1 day after thioacetamide challenge measured on day 8; assay type: functional, organism-based; set-up: dose 20 mg/kg
[15] = test system: Mus musculus; assay: Hepatoprotective activity against thioacetamide-induced liver toxicity in Swiss albino mouse assessed as protection in serum ALP activity at 20 mg/kg, po administered for 7 days started 1 day after thioacetamide challenge measured on day 8; assay type: functional, organism-based; set-up: dose 20 mg/kg

For `CN(CCBr)c1cc(-c2ccc(Cl)cc2)oc(=O)c1C#N`, the “Inhibition activity (active/not active)” value [1] was “Active”, the Activity [2] was “Active” and the Activity [3] was “Active”. For the same molecule, the Activity [4] was “inactive”, the Activity [5] was “Active” and the Activity [6] was “Active”. The Activity [7] was 100%, the Activity [8] was 100% and the Activity [9] was 87%. The Activity [10] was 100%.
For `CN(CCOc1ccc(CC2SC(=O)NC2=O)cc1)c1ccccn1` (centres undefined), the “Inhibition activity (active/not active)” value [1] was “Active”, the Activity [2] was “Active” and the Activity [3] was “Active”. For the same molecule, the Activity [4] was “Active”.
For `COc1ccc(-c2cc(N(C)CCOC(=O)Cc3ccc(O)cc3)c(C#N)c(=O)o2)cc1`, the “Inhibition activity (active/not active)” value [1] was “inactive”, the Activity [2] was “Active” and the Activity [3] was “Active”. For the same molecule, the Activity [4] was “Active”, the Activity [5] was “Active” and the Activity [6] was “Active”. It also gave an Activity [7] of 100%, an Activity [8] of 100% and an Activity [9] of 60%. It also gave an Activity [10] of 92%.
With SILYMARIN the Activity [11] was 95%, the Activity [12] was 93% and the Activity [13] was “Active”. For the same molecule, the Activity [14] was 100% and the Activity [15] was 100%.
With `COc1ccc(-c2cc(N(C)CCN3C(=O)SC(Cc4cccc(O)c4)C3=O)c(C#N)c(=O)o2)cc1` (centres undefined) the “Inhibition activity (active/not active)” value [1] was “inactive”, the Activity [2] was “Active” and the Activity [3] was “Active”. The Activity [4] was “Active”, the Activity [5] was “Active” and the Activity [6] was “Active”. For the same molecule, the Activity [7] was 100%, the Activity [8] was 100% and the Activity [9] was 75%. It also gave an Activity [10] of 89%.
